# Values of other authors as cited in patent US20070225258A1, “COMPOSITIONS COMPRISING BISPHOSPHONATE AND AN ANTIFOLATE” (PROPRIUS PHARMACEUTICALS, INC., priority 2006, published 2007).
# Test system: patients with RA
smiles,measurement,value
CN(Cc1cnc2nc(N)nc(N)c2n1)c1ccc(C(=O)N[C@@H](CCC(=O)O)C(=O)O)cc1 [methotrexate],Proportion of RA patients in whom treatment is effective,effective in only one in three patients
